Active and inactive are the calls of the source.
How the values were obtained:
[1] = target: T1, RNA-binding protein pos-1 (Caenorhabditis elegans, UniProt G5EF15); test: disruptors of C. elegans POS-1 RNA interaction – biochemical, fluorescence polarization, dose response (AID 1964);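 also: purified POS-1 fused to maltose binding protein made in E. coli; potency of compounds blocking POS-1 binding to fluorescent RNA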
T1 sequence (G5EF15 whole entry): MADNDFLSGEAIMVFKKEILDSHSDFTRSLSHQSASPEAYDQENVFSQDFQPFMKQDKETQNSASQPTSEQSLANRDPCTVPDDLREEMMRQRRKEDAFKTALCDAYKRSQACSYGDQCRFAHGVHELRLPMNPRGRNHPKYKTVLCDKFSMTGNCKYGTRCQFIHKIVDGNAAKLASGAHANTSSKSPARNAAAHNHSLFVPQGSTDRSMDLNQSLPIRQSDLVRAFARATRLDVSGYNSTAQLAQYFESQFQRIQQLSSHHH

[2] = target: T2, Zinc finger protein mex-5 (Caenorhabditis elegans, UniProt Q9XUB2); test: potency of MEX-5 RNA-binding blockers – biochemical, C. elegans, fluorescence polarization, dose response (AID 1960)
T2 sequence (Q9XUB2 whole entry): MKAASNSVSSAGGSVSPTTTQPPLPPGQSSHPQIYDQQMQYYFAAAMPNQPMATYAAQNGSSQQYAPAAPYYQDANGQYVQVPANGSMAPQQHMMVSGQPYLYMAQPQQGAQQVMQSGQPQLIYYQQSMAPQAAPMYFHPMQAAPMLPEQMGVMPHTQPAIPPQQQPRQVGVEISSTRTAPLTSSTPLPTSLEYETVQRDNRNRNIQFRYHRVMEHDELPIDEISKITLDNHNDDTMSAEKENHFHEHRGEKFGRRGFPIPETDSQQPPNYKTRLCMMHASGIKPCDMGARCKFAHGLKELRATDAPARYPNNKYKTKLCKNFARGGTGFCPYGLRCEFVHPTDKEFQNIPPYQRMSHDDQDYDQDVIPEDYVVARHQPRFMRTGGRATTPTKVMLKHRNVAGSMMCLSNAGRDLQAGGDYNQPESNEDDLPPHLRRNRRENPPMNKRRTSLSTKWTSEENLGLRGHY

[3] = target: 26S proteasome non-ATPase regulatory subunit 14 (Homo sapiens, UniProt O00487); test: inhibition of proteasome subunit RPN11 – biochemical, fluorescence polarization, uHTS hits, confirmation (AID 602368); type: functional
Sequence of 26S proteasome non-ATPase regulatory subunit 14 (O00487 whole entry): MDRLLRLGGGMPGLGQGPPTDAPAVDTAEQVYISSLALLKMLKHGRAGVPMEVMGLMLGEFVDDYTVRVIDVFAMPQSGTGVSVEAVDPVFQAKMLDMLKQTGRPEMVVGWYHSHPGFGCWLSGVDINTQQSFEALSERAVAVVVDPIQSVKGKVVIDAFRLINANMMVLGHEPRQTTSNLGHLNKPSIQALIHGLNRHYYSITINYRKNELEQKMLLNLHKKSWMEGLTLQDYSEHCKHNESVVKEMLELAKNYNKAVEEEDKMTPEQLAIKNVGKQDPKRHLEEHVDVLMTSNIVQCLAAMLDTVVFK

[4] = target: 72 kDa type IV collagenase (Homo sapiens, UniProt P08253); test: Dose Response validation of uHTS RPN11 inhibitor hits using a MMP-2 Fluorescence assay.; type: functional
Sequence of 72 kDa type IV collagenase (P08253 whole entry): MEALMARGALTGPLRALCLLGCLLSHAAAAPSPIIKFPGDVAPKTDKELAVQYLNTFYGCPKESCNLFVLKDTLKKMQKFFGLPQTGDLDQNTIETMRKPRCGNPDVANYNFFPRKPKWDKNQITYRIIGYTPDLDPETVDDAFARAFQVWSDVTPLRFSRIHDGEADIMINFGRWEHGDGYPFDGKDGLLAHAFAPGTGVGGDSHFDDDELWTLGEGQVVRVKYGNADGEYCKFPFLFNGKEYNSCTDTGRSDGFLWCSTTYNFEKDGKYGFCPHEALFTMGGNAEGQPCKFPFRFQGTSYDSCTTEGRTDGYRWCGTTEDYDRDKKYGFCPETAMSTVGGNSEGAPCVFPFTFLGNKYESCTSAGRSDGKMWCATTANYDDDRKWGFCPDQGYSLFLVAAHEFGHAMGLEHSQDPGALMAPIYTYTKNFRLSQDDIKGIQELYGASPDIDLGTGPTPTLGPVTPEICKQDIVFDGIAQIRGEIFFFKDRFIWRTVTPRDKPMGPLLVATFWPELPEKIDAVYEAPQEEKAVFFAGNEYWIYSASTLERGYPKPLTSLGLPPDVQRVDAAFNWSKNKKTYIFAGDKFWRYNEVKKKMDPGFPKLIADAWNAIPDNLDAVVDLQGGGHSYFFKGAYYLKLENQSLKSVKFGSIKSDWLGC

Prothrombin = Prothrombin (Bos taurus, UniProt P00735); test: thrombin protease inhibitors – biochemical, fluorescence polarization, uHTS hits, dose response (AID 602369); type: functional
[5] = target: T3, Hepatocyte nuclear factor 4-alpha (Homo sapiens, UniProt P41235); type: functional, cell-based;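 also: biochemical luminescence-based dose-response counterscreen measuring inhibition of HNF4 dimerization, run alongside a screen for blockers of ABHD5–perilipin-5 interaction; split luciferase complementation of HNF4 fusion proteins in cell lysate measuring dimerization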
T3 sequence (P41235 whole entry): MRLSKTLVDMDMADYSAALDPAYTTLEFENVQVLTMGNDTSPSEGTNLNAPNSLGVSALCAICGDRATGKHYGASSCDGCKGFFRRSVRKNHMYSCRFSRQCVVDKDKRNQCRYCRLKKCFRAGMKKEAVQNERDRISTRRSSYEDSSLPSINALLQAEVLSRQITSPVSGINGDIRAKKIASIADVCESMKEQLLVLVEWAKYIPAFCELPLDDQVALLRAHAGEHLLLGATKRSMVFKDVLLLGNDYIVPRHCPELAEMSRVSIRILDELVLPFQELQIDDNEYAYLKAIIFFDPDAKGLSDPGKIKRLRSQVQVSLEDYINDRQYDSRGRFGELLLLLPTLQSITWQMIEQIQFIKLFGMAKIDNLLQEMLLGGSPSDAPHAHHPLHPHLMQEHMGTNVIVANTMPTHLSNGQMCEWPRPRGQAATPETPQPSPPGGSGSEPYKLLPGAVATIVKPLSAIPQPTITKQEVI

[6] = HEK-293T cell viability reduction – luminescence, B-cell screen hits, cytotoxicity control for BCR NF-kB inhibitor project, dose response (AID 489021); type: functional, cell-based;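 also: HEK-293T cells carrying an NF-kB luciferase reporter; cells exposed to compound for about 14 hours before viability readout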
Caspase-3 = target: T4, Caspase-3 (Homo sapiens, UniProt P42574); type: functional;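 also: Dose-response selectivity test against caspase-3 for candidate inhibitors of sentrin-specific proteases (SENPs)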
T4 sequence (P42574 whole entry): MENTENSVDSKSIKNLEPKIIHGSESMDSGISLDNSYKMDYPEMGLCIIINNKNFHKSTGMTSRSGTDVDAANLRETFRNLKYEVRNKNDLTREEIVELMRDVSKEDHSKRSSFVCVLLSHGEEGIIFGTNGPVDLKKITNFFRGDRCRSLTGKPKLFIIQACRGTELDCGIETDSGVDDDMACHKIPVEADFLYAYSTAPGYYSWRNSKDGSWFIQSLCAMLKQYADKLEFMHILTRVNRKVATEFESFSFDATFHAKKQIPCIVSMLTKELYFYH

[7] = target: T5, Sentrin-specific protease 7 (Homo sapiens, UniProt Q9BQF6); type: functional;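 also: Luminescence-based dose-response confirmation of ultra-high-throughput screening hits, measuring inhibition of SENP7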
T5 sequence (Q9BQF6 whole entry): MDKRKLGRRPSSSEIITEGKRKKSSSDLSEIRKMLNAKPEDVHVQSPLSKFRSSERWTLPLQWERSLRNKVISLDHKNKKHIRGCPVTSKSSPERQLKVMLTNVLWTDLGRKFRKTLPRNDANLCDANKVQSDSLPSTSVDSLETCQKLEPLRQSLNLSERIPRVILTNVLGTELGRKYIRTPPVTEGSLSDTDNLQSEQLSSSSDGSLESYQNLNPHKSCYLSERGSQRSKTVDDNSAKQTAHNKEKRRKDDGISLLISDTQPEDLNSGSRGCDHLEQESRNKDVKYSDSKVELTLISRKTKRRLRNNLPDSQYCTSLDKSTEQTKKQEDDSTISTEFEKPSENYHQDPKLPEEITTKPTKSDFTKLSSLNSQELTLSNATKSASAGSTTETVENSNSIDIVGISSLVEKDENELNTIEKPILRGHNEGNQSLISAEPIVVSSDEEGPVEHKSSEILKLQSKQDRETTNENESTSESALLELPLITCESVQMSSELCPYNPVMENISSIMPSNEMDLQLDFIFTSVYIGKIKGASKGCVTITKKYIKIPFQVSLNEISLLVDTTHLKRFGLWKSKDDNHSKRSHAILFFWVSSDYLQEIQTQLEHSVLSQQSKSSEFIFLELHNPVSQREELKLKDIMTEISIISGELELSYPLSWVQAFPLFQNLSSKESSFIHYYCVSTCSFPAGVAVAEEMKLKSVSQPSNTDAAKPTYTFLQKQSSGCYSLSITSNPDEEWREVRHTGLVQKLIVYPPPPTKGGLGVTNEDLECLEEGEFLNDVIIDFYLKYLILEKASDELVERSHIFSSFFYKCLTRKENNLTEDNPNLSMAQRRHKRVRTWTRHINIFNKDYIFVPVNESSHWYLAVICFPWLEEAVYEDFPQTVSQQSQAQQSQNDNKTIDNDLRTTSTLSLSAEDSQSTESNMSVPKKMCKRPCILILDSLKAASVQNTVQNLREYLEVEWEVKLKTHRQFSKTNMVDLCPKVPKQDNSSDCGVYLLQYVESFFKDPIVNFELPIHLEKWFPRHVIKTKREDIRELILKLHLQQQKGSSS

[8] = target: T6, Sentrin-specific protease 6 (Homo sapiens, UniProt Q9GZR1); type: functional;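 also: Luminescence-based dose-response confirmatory assay of SENP6 inhibition, following up an ultra-high-throughput screen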
T6 sequence (Q9GZR1 whole entry): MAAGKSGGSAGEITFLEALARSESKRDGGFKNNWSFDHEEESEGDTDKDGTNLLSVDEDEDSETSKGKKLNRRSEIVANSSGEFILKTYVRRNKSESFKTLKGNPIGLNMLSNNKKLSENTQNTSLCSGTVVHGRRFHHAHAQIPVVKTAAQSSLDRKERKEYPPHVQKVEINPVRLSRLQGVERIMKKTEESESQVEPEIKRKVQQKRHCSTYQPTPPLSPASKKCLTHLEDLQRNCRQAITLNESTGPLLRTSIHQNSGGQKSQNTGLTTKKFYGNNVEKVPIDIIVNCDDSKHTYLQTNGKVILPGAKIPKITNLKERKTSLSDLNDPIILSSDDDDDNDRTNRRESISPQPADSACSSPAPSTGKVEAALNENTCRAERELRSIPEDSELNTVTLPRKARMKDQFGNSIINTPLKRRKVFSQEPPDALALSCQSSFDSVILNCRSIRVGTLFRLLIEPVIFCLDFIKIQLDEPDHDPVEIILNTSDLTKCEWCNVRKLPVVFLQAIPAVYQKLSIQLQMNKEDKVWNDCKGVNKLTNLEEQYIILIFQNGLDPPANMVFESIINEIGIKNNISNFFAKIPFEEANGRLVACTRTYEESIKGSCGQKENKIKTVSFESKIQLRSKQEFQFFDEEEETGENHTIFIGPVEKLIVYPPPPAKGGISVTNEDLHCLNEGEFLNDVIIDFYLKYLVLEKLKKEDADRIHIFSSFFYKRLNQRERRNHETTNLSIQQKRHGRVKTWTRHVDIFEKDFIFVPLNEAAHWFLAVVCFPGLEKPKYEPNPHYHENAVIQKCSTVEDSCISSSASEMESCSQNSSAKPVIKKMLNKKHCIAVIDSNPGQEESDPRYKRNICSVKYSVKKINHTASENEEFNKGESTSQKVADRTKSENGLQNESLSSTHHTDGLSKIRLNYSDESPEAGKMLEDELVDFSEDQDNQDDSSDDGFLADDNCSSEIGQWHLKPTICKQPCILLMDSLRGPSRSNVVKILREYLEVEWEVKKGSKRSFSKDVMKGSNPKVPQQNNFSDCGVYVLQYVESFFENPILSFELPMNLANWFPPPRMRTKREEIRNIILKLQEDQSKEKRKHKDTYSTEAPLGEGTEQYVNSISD

[9] = target: T7, Sentrin-specific protease 8 (Homo sapiens, UniProt Q96LD8); type: functional;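 also: luminescence read-out of SENP8 inhibition, dose-response confirmation following an ultra-high-throughput screen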
T7 sequence (Q96LD8 whole entry): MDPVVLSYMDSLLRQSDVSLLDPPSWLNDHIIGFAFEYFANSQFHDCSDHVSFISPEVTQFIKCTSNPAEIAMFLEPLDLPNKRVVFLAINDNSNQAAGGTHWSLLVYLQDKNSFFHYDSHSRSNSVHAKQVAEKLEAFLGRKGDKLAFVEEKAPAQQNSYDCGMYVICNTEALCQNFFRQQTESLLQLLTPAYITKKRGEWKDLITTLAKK

[10] = target: T8, Endoribonuclease toxin MazF (Escherichia coli K-12, UniProt P0AE70); test: activation of MazEF endoribonuclease cleavage – biochemical, fluorescence, single-stranded RNA substrate, uHTS hits, dose response (AID 588481); type: functional
T8 sequence (P0AE70 whole entry): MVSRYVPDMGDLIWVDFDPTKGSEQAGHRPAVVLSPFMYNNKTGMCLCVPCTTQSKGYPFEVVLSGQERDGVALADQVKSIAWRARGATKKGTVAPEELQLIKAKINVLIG

[11] = target: T8, Endoribonuclease toxin MazF; test: substrate-only fluorescence increase artefacts – biochemical, single-stranded RNase substrate, counter-screen for MazEF activator project, dose response (AID 588502); type: functional
Protein skinhead-1 = target: T9, Protein skinhead-1 (Caenorhabditis elegans, UniProt P34707); type: functional
T9 sequence (P34707 whole entry): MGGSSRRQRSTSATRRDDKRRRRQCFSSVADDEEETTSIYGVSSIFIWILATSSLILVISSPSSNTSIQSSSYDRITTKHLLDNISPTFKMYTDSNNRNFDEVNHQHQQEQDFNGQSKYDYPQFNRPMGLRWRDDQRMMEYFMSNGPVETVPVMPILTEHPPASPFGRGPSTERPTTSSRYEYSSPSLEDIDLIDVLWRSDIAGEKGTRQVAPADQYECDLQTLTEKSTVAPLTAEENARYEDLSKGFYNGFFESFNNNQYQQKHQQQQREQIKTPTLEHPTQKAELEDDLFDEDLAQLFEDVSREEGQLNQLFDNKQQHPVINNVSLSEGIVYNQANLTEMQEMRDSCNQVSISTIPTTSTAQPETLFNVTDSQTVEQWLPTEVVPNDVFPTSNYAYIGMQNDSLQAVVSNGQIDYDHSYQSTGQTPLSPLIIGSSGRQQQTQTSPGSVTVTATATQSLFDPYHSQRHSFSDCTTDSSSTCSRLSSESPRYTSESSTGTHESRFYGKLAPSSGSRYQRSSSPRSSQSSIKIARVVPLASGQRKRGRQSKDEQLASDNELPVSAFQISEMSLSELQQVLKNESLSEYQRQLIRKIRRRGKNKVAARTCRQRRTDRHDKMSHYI

Genome polyprotein = Genome polyprotein (dengue virus type 2, UniProt P29990); test: flavivirus cap methylation enzyme inhibition – biochemical, confirmation dose response, primary screen (AID 588689); type: functional
Sequence of Genome polyprotein (P29990 2492-3391 limits assumed): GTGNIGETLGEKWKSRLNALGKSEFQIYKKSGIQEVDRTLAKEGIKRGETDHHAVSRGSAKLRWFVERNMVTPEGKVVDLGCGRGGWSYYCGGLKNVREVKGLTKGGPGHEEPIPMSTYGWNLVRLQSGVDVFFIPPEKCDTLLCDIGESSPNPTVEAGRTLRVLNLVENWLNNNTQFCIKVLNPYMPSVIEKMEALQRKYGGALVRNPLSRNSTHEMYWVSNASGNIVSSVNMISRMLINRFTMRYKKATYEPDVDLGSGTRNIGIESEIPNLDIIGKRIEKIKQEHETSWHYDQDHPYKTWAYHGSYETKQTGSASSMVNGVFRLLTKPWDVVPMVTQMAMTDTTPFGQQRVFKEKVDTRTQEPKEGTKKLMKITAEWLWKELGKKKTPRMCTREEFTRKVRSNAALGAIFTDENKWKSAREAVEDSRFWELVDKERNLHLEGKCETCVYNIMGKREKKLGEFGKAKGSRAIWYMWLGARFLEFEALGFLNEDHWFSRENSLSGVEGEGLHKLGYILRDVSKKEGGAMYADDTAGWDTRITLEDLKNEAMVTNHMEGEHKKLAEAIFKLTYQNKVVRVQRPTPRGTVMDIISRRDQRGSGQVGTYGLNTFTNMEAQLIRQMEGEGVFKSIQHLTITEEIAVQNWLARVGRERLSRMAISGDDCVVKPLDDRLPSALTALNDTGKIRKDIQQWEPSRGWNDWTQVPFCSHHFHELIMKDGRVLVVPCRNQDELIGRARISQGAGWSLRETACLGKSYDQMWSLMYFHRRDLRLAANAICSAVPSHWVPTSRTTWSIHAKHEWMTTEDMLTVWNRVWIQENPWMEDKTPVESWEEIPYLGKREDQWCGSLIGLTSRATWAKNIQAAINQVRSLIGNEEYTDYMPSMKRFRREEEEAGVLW

## CCOc1ccc(N2C(=O)/C(=C/Nc3ccnn3Cc3ccncc3)c3ccccc3C2=O)cc1
[1]
  EC50: > 300 µM (not active)
[2]
  EC50: > 300 µM (not active)
[3]
  IC50: 23.9 µM (active)
[4]
  IC50: > 100 µM (inactive)
Prothrombin
  IC50: 24.6 µM (active)

## O=C(NCc1ccccc1)C(c1ccc(-c2ccccc2)cc1)n1c(=O)c(-c2ccco2)nc2ccccc21 (stereo not given)
[5]
  IC50: 3.34 µM (active)

## COc1ccc(/C=C2/SC(=S)N(CCCC(=O)Nc3ccc(O)cc3)C2=O)cc1OC
[6]
  IC50: > 80 µM (inactive)
[3]
  IC50: 25.2 µM (active)
[4]
  IC50: > 100 µM (inactive)
Prothrombin
  IC50: 31.8 µM (active)

## CN(C)c1ccc(C(=O)/C=C/c2ccccc2)cc1
Caspase-3
  IC50: 8.33 µM (active)
[7]
  IC50: 5.32 µM (active)
[8]
  IC50: 11.6 µM (active)
[9]
  IC50: 14.3 µM (active)
[10]
  EC50: > 99 µM (inactive)
[11]
  EC50: > 99 µM (inactive)
Protein skinhead-1
  IC50: > 100 µM (inactive)

## COc1cc(/C=C2/SC(=S)N(CC(=O)Nc3nc4ccccc4s3)C2=O)cc(OC)c1OC
[3]
  IC50: 20.2 µM (active)
[4]
  IC50: > 100 µM (inactive)
Prothrombin
  IC50: 23.5 µM (active)

## CC(=O)OCC1=C(C(=O)O)N2C(=O)C(NC(=O)CCn3nc(C(F)(F)F)c(Br)c3C3CC3)C2SC1 (stereo not given)
Genome polyprotein
  IC50: 54.8 µM (active)
[5]
  IC50: 17.7 µM (inactive)

## CCCCn1c(/N=C/c2ccc(N(C)C)cc2)nc2ccccc21
[3]
  IC50: 5.14 µM (active)
[4]
  IC50: > 100 µM (inactive)
Prothrombin
  IC50: 7.12 µM (active)

Source: ChEMBL document CHEMBL1201862, “PubChem BioAssay data set” (2004)
